Experimental data published in patent US7888319B2, “Compositions and methods for promoting wound healing and tissue regeneration” (MUSC Foundation for Research Development, priority 2004, dated 2011).

Tested on: WB-F344 cells
Experiment: Scratch injury of WB-F344 cell lines stably expressing ACT-peptide-encoding polynucleotide
Assay type: cell-based, rat
Conditions: stable expression with GFP, 24 hours after scratch, vs GFP-only cell line
From the text: WB-F344 cells are a transformed rat epithelial cell line derived by treatment of isolated rat liver cells with a cancer-causing agent (Tsao et al., 1984; Hayashi et al., 1997; Hayashi et al., 1998; Hayashi et al., 2001). WB-F344 cells were transfected with a cDNA expression plasmid construct and selected under antibiotic using standard protocols to generate cell lines that stably expressed an ACT-peptide-encoding-polynucleotide (SEQ ID NO:6) operably linked to a promoter sequence or a green fluorescent protein (GFP) polynucleotide operably linked to a promoter sequence as a control. The polynucleotide encoding the ACT peptide also encoded GFP. As such, expression of the ACT peptide could be assayed by standard GFP fluorescence optics on a light microscope. (a) and (b) show high magnification images of GFP fluorescence in WB-F344 cell lines expressing GFP plus the carboxy terminus ACT peptide sequence (a) or GFP alone (b). Near confluent monolayers of the WB-F344 cell lines were “scratch injured” and allowed to “heal” for 24 hours. […]
WB-F344 cells are a transformed rat epithelial cell line derived by treatment of isolated rat liver cells with a cancer-causing agent (Tsao et al., 1984; Hayashi et al., 1997; Hayashi et al., 1998; Hayashi et al., 2001). […] As such, expression of the ACT peptide could be assayed by standard GFP fluorescence optics on a light microscope. […]

Substance: aga cct cgg cct gat gac ctg gag att (DNA AGACCTCGGCCTGATGACCTGGAGATT; expressed or natural sequence) [ACT-peptide-encoding-polynucleotide, polynucleotide encoding ACT peptide plus GFP, operably linked to a promoter, stably expressed in WB-F344 cells]
- repopulation of the scratch injury: inhibited repopulation of the scratch injury
